Assay results as given in patent EP3552605A1 (priority 2018, dated 2019).
“Also recorded” adds a separate entry of the source. Read-outs that look alike come from different tables or passages of the source.

What was measured:
[1] = p.o., cited from earlier work
[2] = cited from earlier work
[3] = dose not stated; cited from earlier work
senescent ARPE-1 cells = assay: toxicity towards senescent ARPE-1 cells (GIEMSA staining, microscopy); type: cell-based, human; conditions: 10 µM, 48 hours; senescence induced by 200nM aphidicolin for three weeks; Figure 1
Procedure: (§1) hTERT RPE-1 human retinal epithelial cell line was obtained from ATTC. Cells were grown in DMEM medium (Sigma Aldrich) supplemented with 10% fetal bovine serum (FBS) and antibiotics (penicillin-streptomycin). MRC-5 human lung fibroblast cell line was obtained from ATTC. Cells were grown in DMEM (Sigma Aldrich) supplemented with 10% FBS and antibiotics (penicillin-streptomycin).
(§2) In human ARPE-1 human epithelial cells, senescence response - manifested by loss of proliferation, typical morphological changes and Senescence Associated Beta-galactosidase positivity - was induced by exposition to replication stress for prolonged time period. The induction involved 200nM aphidicolin continual treatment for three weeks. The senescent cells have been exposed to various doses of MCOPPB dissolved in water for 48 hours, the dose range spanned 100 nM - 50 µM. The number of surviving cells was evaluated immediately after the treatment either using GIMSA staining and microscopy-based evaluation of surviving cells and compared to parental exponentially growing ARPE-1 cells, which were exposed to MCOPPB as well. Control samples of senescent and parental cells, without MCOPPB treatment, were assessed, too. […]

[4] = tested on: parental (normal healthy) ARPE-1 cells; assay: toxicity towards parental ARPE-1 cells (GIEMSA staining, microscopy); type: cell-based, human; conditions: 10 µM, 48 hours; Figure 1
Procedure: as §1, §2

senescent MRC5 cells = assay: toxicity towards senescent MRC5 cells (GIEMSA staining, microscopy); type: cell-based, human
Procedure: as §1
In human MRC-5 fibroblasts cells, senescence response - manifested by loss of proliferation, typical morphological changes and Senescence Associated Beta-galactosidase positivity - was induced by exposition to gamma radiation. The induction involved a single irradiation, total dose 15 Gy using Xstrahl RS 225 M RTG device set to 200KV 15mA (dose 3.8Gy/min). […] The number of surviving cells was evaluated immediately after the treatment either using GIMSA staining and microscopy-based evaluation of surviving cells and compared to parental exponentially growing MRC-5 cells.

[5] = tolerance of long term application in vivo; design: species or system mice (C57B1/6 strain); conditions: five weeks, regime 5 + 2, female mice aged 42 weeks
Procedure: Female mice (C57B1/6 strain) at the age of 42 weeks were treated by intraperitoneal application of MCOPPB (10 mg/kg and 20 mg/kg) dissolved in phosphate buffer or by the buffer alone (vehicle) for five weeks in the regime 5 + 2 (5 days with the treatment, two days without) and followed for another two weeks. The weight and another physiological factors reflecting overall fitness were monitored.

[6] = tested on: senescent cells (p16 positive cells); assay: elimination of senescent cells in p16 luciferase reporter mouse; type: in vivo
Procedure: Reporter GMO mouse with integrated luciferase reporter under p16 promoter allows monitoring of aging on the molecular level by an increase of luminescence signal due to the accumulation of senescent cells (this mouse model is described in details in: Cell. 2013 Jan 17;152(1-2):340-51). Application of senolytics targets the p16 positive cells and leads to decrease in the luminescent signal. Naturally aged reporter mice were treated by the MCOPPB compound and luminescence signal level was measured over time.

mu opioid receptor = mu opioid receptor (Homo sapiens, UniProt P35372); conditions: cited from earlier work
kappa opioid receptor = kappa opioid receptor (Homo sapiens, UniProt P41145); conditions: cited from earlier work
delta opioid receptor = delta opioid receptor (Homo sapiens, UniProt P41143); conditions: cited from earlier work
[7] = molecular target: T1, NOP receptor in the mouse brain (Mus musculus, UniProt P35377); conditions: 10 mg/kg, p.o.; ex vivo; cited from earlier work
T1 construct: from tissue; host or cells: mouse brain

[8] = animal studies, cited from earlier work
[9] = oral dose of 10 mg/kg; cited from earlier work

T1 sequence (P35377 whole entry): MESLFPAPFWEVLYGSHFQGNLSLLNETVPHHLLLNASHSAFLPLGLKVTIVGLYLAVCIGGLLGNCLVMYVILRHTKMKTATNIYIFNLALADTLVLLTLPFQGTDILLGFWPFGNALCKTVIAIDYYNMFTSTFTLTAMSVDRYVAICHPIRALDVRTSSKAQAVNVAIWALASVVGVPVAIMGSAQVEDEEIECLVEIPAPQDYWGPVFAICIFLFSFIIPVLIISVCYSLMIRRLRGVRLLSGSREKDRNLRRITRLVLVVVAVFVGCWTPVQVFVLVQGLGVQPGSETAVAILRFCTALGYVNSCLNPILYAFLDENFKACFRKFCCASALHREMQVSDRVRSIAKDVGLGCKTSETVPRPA
mu opioid receptor, sequence (P35372 whole entry, species assumed): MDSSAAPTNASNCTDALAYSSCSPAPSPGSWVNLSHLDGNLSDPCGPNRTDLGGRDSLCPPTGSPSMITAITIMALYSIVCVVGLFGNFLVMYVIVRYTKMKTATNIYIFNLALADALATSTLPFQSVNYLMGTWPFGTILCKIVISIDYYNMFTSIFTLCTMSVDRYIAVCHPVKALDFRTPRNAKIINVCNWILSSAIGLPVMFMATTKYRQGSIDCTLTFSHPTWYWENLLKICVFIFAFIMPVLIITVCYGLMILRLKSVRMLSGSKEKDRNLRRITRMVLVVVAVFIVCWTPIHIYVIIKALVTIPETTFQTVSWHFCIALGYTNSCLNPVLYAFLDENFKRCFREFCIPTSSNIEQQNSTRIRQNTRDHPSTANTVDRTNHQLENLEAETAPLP
delta opioid receptor, sequence (P41143 whole entry): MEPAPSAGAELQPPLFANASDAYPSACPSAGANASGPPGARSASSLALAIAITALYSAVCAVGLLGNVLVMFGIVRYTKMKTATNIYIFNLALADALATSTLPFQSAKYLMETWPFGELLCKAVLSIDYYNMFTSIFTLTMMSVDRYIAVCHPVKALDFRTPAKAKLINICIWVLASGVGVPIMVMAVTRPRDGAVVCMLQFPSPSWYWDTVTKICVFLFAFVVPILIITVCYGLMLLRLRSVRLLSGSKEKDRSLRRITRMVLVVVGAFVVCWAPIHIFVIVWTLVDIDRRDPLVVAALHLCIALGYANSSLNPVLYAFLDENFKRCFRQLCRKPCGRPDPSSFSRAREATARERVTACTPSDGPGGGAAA
kappa opioid receptor, sequence (P41145 whole entry): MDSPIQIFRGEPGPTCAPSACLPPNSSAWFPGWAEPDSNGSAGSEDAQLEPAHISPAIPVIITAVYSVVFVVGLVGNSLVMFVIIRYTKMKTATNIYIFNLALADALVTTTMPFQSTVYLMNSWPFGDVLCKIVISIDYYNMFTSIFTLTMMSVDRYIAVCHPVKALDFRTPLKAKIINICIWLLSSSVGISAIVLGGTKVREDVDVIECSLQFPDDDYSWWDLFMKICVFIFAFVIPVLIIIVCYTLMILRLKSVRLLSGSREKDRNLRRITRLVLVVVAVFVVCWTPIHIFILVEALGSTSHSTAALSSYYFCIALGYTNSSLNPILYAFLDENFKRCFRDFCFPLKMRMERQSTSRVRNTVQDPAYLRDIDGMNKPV

CN1C(=O)CN=C(c2ccccc2)c2cc(Cl)ccc21 [diazepam, reference compound]
anxiolytic-like effects ([1]; 3 mg/kg): elicited anxiolytic-like effects
memory ([2]; dose not stated): caused memory deficits
ethanol-induced hypnosis [3]: enhanced ethanol-induced hypnosis

CC1(N2CCC(n3c([C@@H]4CCCNC4)nc4ccccc43)CC2)CCCCCCC1 [MCOPPB, 1-[1-(1-methylcyclooctyl)-4-piperidinyl]-2-[(3R)-3-piperidinyl]-1H-benzimidazole]
toxicity towards the senescent cells (senescent ARPE-1 cells): cell deterioration and cell loss; also recorded: selective toxicity
adverse effects on the parental cells [4]: no adverse effects
toxicity towards the senescent cells (senescent MRC5 cells; 5 µM, 48 hours, senescence induced by gamma radiation 15 Gy, Figure 3): selective toxicity
toxicity towards the senescent cells (senescent MRC5 cells; 10µM for 48 hours (legend of Figure 3)): cell deterioration and cell loss
tolerance by the animals ([5]; 10 mg/kg intraperitoneal): well tolerated
tolerance by the animals ([5]; 20 mg/kg intraperitoneal): well tolerated
whole body luminescent signals ([6]; 12-16 months old p16 reporter mice, treated for two weeks, versus vehicle, Figure 6): decrease of the luminescence signal
whole body luminescent signal ([6]; 12 month old p16 reporter mouse, after three weeks of treatment, Figure 5): rapid decrease of the signal
luminescence signal ([6]; naturally aged reporter mice, compared to controls, figures 5 and 6): decrease in the luminescence signal
affinity for the mu opioid receptor (mu opioid receptor): moderate affinity
affinity for the kappa opioid receptor (kappa opioid receptor): weak affinity
binding at the delta opioid receptor (delta opioid receptor): negligible binding
signaling through the NOP receptor in the mouse brain [7]: inhibited signaling
anxiolytic-like effects ([1]; 10 mg/kg): elicited anxiolytic-like effects
anxiolytic effect after repeated administration ([1]; 10 mg/kg, repeated administration for 5 days): still effective as an anxiolytic agent
shape of response curve [1]: bell-shaped response curve
sedative side effects ([8]; appear only at much higher doses than the effective anxiolytic dose range): only slight sedative side effects
anxiolytic effects [8]: potent anxiolytic effects
inhibition of memory or motor function [8]: no inhibition of memory or motor function
locomotor activity [9]: did not affect
memory ([2]; oral dose of 10 mg/kg): did not affect
